“And” between values parts separate entries of the source, which are not always exact repeats. Equal entries are not always repeated. Inconclusive results and toxic doses are left out. Rule for the calls: active = survival T/C of 150% or more; inactive = T/C below 125% in these data.
Tested on: CD2F1 mice, L1210 leukemia ip, survival T/C
Assay: NCI In Vivo Anticancer Drug Screen. Data for tumor model L1210 Leukemia (intraperitoneal) in CD2F1 (CDF1) mice
Details: higher = longer survival
Procedure, shortened: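 Mice carrying a transplanted tumor received test compound or vehicle alone. The value is the measurement in the treated group divided by that in the vehicle-treated control group.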

[1] = endpoint: mean survival time, dose: 100.0 mg/kg/injection, schedule: Q04DX003 (ip), vehicle: saline with Tween-80
[2] = endpoint: mean survival time, dose: 200.0 mg/kg/injection, schedule: Q04DX003 (ip), vehicle: saline with Tween-80
[3] = endpoint: mean survival time, dose: 400.0 mg/kg/injection, schedule: Q04DX003 (ip), vehicle: saline with Tween-80
[4] = endpoint: mean survival time, dose: 75.0 mg/kg/injection, schedule: Q01DX001 (ip), vehicle: saline
[5] = endpoint: mean survival time, dose: 25.0 mg/kg/injection, schedule: Q04DX003 (ip), vehicle: saline
[6] = endpoint: mean survival time, dose: 50.0 mg/kg/injection, schedule: Q04DX003 (ip), vehicle: saline
[7] = endpoint: mean survival time, dose: 100.0 mg/kg/injection, schedule: Q04DX003 (ip), vehicle: saline

Measured: T/C

CC(C)c1cc2ccccc2s1
inactive: endpoint: mean survival time, dose: 100.0 mg/kg/injection, schedule: Q01DX001 (ip), vehicle: saline 96 % of control | endpoint: mean survival time, dose: 200.0 mg/kg/injection, schedule: Q01DX001 (ip), vehicle: saline 102 % of control

Nc1nc(N)c2cc(S(=O)(=O)c3ccccc3)ccc2n1
inactive: endpoint: median survival time, dose: 25.0 mg/kg/injection, schedule: Q01DX009 (ip), vehicle: saline with Tween-80 98 % of control | endpoint: median survival time, dose: 50.0 mg/kg/injection, schedule: Q01DX009 (ip), vehicle: saline with Tween-80 100 % of control | endpoint: median survival time, dose: 100.0 mg/kg/injection, schedule: Q01DX009 (ip), vehicle: saline with Tween-80 102 % of control | endpoint: median survival time, dose: 200.0 mg/kg/injection, schedule: Q01DX009 (ip), vehicle: saline with Tween-80 121 % of control

O=c1oc(-c2ccc3c(c2)OCO3)nc2ccccc12
inactive: [1] 91 % of control | [2] 87 % of control

C=C/C(C)=N/Nc1ccc([N+](=O)[O-])cc1[N+](=O)[O-]
inactive: [1] 94 % of control | [2] 95 % of control | [3] 95 % of control

O=C(Nc1ccn(C2CC(O)C(CO)O2)c(=O)n1)c1ccccc1 (stereo unspecified)
inactive: endpoint: median survival time, dose: 12.5 mg/kg/injection, schedule: Q01DX005 (ip), vehicle: saline with Tween-80 100 % of control | endpoint: median survival time, dose: 25.0 mg/kg/injection, schedule: Q01DX005 (ip), vehicle: saline with Tween-80 104 % of control | endpoint: median survival time, dose: 50.0 mg/kg/injection, schedule: Q01DX005 (ip), vehicle: saline with Tween-80 103 % of control | endpoint: median survival time, dose: 100.0 mg/kg/injection, schedule: Q01DX005 (ip), vehicle: saline with Tween-80 98 % of control | endpoint: median survival time, dose: 200.0 mg/kg/injection, schedule: Q01DX005 (ip), vehicle: saline with Tween-80 95 % of control

CCSC1=[N+](SCC)CCCS1
inactive: [4] 103 % of control

C=C(C)CNCC(=C)C
inactive: [5] 102 % of control | [6] 98 % of control | [7] 102 % of control and 106 % of control

OC(CCc1ccccc1)(C(F)(F)Cl)C(F)(F)Cl
inactive: [1] 98 % of control | [2] 89 % of control | [3] 92 % of control

Nc1ccc(-c2c(N)ncc3ccccc23)cc1
inactive: endpoint: mean survival time, dose: 50.0 mg/kg/injection, schedule: Q04DX003 (ip), vehicle: DMSO 101 % of control

CC(CO)(CO)N(CCO)CCO
inactive: [1] 94 % of control | [2] 100 % of control | [3] 92 % of control

O=C(O)c1cc[c]([Hg][S]c2ncnc3nc[nH]c23)cc1
inactive: endpoint: mean survival time, dose: 5.0 mg/kg/injection, schedule: Q01DX001 (ip), vehicle: saline 98 % of control | endpoint: mean survival time, dose: 10.0 mg/kg/injection, schedule: Q01DX001 (ip), vehicle: saline 98 % of control | endpoint: mean survival time, dose: 20.0 mg/kg/injection, schedule: Q01DX001 (ip), vehicle: saline 101 % of control | endpoint: mean survival time, dose: 25.0 mg/kg/injection, schedule: Q04DX003 (ip), vehicle: saline with Tween-80 98 % of control | endpoint: mean survival time, dose: 33.0 mg/kg/injection, schedule: Q04DX003 (ip), vehicle: saline sonified 119 % of control | endpoint: mean survival time, dose: 40.0 mg/kg/injection, schedule: Q01DX001 (ip), vehicle: saline 98 % of control | endpoint: mean survival time, dose: 50.0 mg/kg/injection, schedule: Q04DX003 (ip), vehicle: saline sonified 119 % of control | endpoint: mean survival time, dose: 50.0 mg/kg/injection, schedule: Q04DX003 (ip), vehicle: saline with Tween-80 104 % of control | endpoint: mean survival time, dose: 80.0 mg/kg/injection, schedule: Q01DX001 (ip), vehicle: saline 104 % of control | endpoint: mean survival time, dose: 100.0 mg/kg/injection, schedule: Q01DX009 (ip), vehicle: saline sonified 120 % of control | [1] 121 % of control and 101 % of control
active: endpoint: mean survival time, dose: 37.5 mg/kg/injection, schedule: Q01DX009 (ip), vehicle: saline sonified 172 % of control

CC(Br)C(=O)NCC(=O)O (stereo unspecified)
inactive: [1] 92 % of control | [2] 91 % of control | [3] 95 % of control

CC1C=COC(C)CO1 (stereo unspecified) (tested in a mixture with another compound)
inactive: [1] 103 % of control | [2] 97 % of control | [3] 95 % of control

COc1cccc2c1C(=O)c1c(O)c3c(c(O)c1C2=O)CC(O)(/C(C)=N/NC(=O)CCCC(=O)N/N=C(\C)C1(O)Cc2c(O)c4c(c(O)c2C(OC2CC(N)C(O)C(C)O2)C1)C(=O)c1c(OC)cccc1C4=O)CC3OC1CC(N)C(O)C(C)O1 (stereo unspecified)
inactive: endpoint: mean survival time, dose: 0.2 mg/kg/injection, schedule: Q01DX009 (ip), vehicle: water 101 % of control | endpoint: mean survival time, dose: 0.39 mg/kg/injection, schedule: Q01DX009 (ip), vehicle: water 98 % of control | endpoint: mean survival time, dose: 0.78 mg/kg/injection, schedule: Q01DX009 (ip), vehicle: water 109 % of control | endpoint: mean survival time, dose: 1.56 mg/kg/injection, schedule: Q01DX009 (ip), vehicle: water 104 % of control | endpoint: mean survival time, dose: 3.13 mg/kg/injection, schedule: Q01DX009 (ip), vehicle: water 114 % of control

CC1(CC2SCCCS2)SCCCS1
inactive: endpoint: mean survival time, dose: 25.0 mg/kg/injection, schedule: Q04DX002 (ip), vehicle: saline with Tween-80 96 % of control | endpoint: mean survival time, dose: 50.0 mg/kg/injection, schedule: Q04DX002 (ip), vehicle: saline with Tween-80 93 % of control | endpoint: mean survival time, dose: 100.0 mg/kg/injection, schedule: Q04DX002 (ip), vehicle: saline with Tween-80 96 % of control | endpoint: mean survival time, dose: 200.0 mg/kg/injection, schedule: Q04DX002 (ip), vehicle: saline with Tween-80 86 % of control

O=C(O)C(=O)O.O=C(O)C(=O)O.OO.OO.[Nb]
inactive: endpoint: mean survival time, dose: 12.5 mg/kg/injection, schedule: Q01DX009 (ip), vehicle: water 93 % of control | endpoint: mean survival time, dose: 25.0 mg/kg/injection, schedule: Q01DX009 (ip), vehicle: water 98 % of control | endpoint: mean survival time, dose: 50.0 mg/kg/injection, schedule: Q01DX009 (ip), vehicle: water 87 % of control

CC12CCC3C4CCC(=O)C=C4CCC3C1CCC2O (stereo unspecified)
inactive: endpoint: mean survival time, dose: 50.0 mg/kg/injection, schedule: Q01DX009 (ip), vehicle: Klucel (hydroxypropylcellulose) (HPC) 101 % of control | endpoint: mean survival time, dose: 100.0 mg/kg/injection, schedule: Q01DX009 (ip), vehicle: Klucel (hydroxypropylcellulose) (HPC) 96 % of control | endpoint: mean survival time, dose: 200.0 mg/kg/injection, schedule: Q01DX009 (ip), vehicle: Klucel (hydroxypropylcellulose) (HPC) 101 % of control

CCN(CCc1ccc(N)cc1)C(Cc1ccccc1)c1cccc(OC)c1 (stereo unspecified)
inactive: endpoint: mean survival time, dose: 12.5 mg/kg/injection, schedule: Q01DX009 (ip), vehicle: saline 102 % of control | endpoint: mean survival time, dose: 12.5 mg/kg/injection, schedule: Q04DX003 (ip), vehicle: saline 103 % of control | endpoint: mean survival time, dose: 25.0 mg/kg/injection, schedule: Q01DX009 (ip), vehicle: saline 97 % of control | [5] 97 % of control | endpoint: mean survival time, dose: 50.0 mg/kg/injection, schedule: Q01DX009 (ip), vehicle: saline 100 % of control | [6] 95 % of control

N#Cc1c(F)c(F)c(Oc2c(F)c(F)c(F)c(F)c2F)c(F)c1Oc1c(F)c(F)c(F)c(F)c1F
inactive: [1] 96 % of control | [2] 93 % of control | [3] 88 % of control

Cc1noc(N)c1N
inactive: endpoint: median survival time, dose: 12.5 mg/kg/injection, schedule: Q01DX009 (ip), vehicle: water 98 % of control | endpoint: median survival time, dose: 25.0 mg/kg/injection, schedule: Q01DX009 (ip), vehicle: water 100 % of control | endpoint: median survival time, dose: 50.0 mg/kg/injection, schedule: Q01DX009 (ip), vehicle: water 100 % of control | endpoint: median survival time, dose: 100.0 mg/kg/injection, schedule: Q01DX009 (ip), vehicle: water 113 % of control and 104 % of control and 110 % of control | endpoint: median survival time, dose: 150.0 mg/kg/injection, schedule: Q01DX009 (ip), vehicle: water 109 % of control

CC(C)CCNc1ncnc2[nH]ncc12
inactive: endpoint: mean survival time, dose: 12.5 mg/kg/injection, schedule: Q04DX003 (ip), vehicle: Klucel (hydroxypropylcellulose) (HPC) 106 % of control | endpoint: mean survival time, dose: 25.0 mg/kg/injection, schedule: Q04DX003 (ip), vehicle: Klucel (hydroxypropylcellulose) (HPC) 106 % of control | endpoint: mean survival time, dose: 50.0 mg/kg/injection, schedule: Q04DX003 (ip), vehicle: Klucel (hydroxypropylcellulose) (HPC) 100 % of control

COc1ccc(SC2=CC(=O)c3ccccc3C2=O)cc1
inactive: endpoint: mean survival time, dose: 75.0 mg/kg/injection, schedule: Q01DX001 (ip), vehicle: other 97 % of control | endpoint: mean survival time, dose: 150.0 mg/kg/injection, schedule: Q01DX001 (ip), vehicle: other 95 % of control

Cc1ccc(S(=O)(=O)NC(CSCc2ccccc2)C(=O)O)cc1 (stereo unspecified)
inactive: [1] 94 % of control | [2] 93 % of control | [3] 95 % of control

Nc1cccc2c(S(=O)(=O)O)cccc12
inactive: [7] 100 % of control | endpoint: mean survival time, dose: 200.0 mg/kg/injection, schedule: Q04DX003 (ip), vehicle: saline 100 % of control | endpoint: mean survival time, dose: 400.0 mg/kg/injection, schedule: Q04DX003 (ip), vehicle: saline 97 % of control

CC(NC(=O)C(C)(Br)C1CCCCC1)c1ccccc1 (stereo unspecified)
inactive: endpoint: mean survival time, dose: 100.0 mg/kg/injection, schedule: Q01DX001 (ip), vehicle: saline with Tween-80 87 % of control | endpoint: mean survival time, dose: 200.0 mg/kg/injection, schedule: Q01DX001 (ip), vehicle: saline with Tween-80 91 % of control

NC(=O)c1cccnc1
inactive: endpoint: mean survival time, dose: 175.0 mg/kg/injection, schedule: Q04HX040 (ip), vehicle: water 109 % of control | endpoint: mean survival time, dose: 350.0 mg/kg/injection, schedule: Q04HX040 (ip), vehicle: water 103 % of control

OCCC(c1ccccc1)C1CCCCN1 (stereo unspecified)
inactive: [4] 101 % of control | endpoint: mean survival time, dose: 150.0 mg/kg/injection, schedule: Q01DX001 (ip), vehicle: saline 100 % of control

— PubChem BioAssay AID256 (DTP/NCI, 2004)
